Paper PMC12830989, “Subcellular glycan-mannose receptor binding kinetics correlate with myeloid cell function” (Nature Communications, 2025)
sCy5 = sulfo-Cy5

How the values were obtained:
MR^−/− BMDC = test: Glyco-PAINT-APP single-molecule glycan binding on live MR-/- BMDC; parameters: species or system mouse; details: Suppl. Fig 9, glycan SLP, median
Description: (§1) Single molecule imaging was performed on a Nikon Ti2 N-STORM system equipped with TIRF module, Z piezo element, perfect focus system for axial drift correction and an OkoLab incubator with temperature and CO2 controller (37 °C and 5% CO2) for live-cell imaging. Recordings were acquired using the 647 nm excitation laser (160 mW, 1.9 kW/cm^2). Upon laser excitation, fluorescence was collected by a 100x 1.49 NA oil-immersion objective, passed through a quad-band dichroic mirror (97335 Nikon), and detected by a Hamamatsu ORCA Flash 4.0 CMOS camera with 160 nm pixel size. The signal was collected using the following settings: 512 × 512 pixel region, no binning, pixel depth 16-bit, exposure time 50 ms, live-cell observation and 2D-STORM (lens out), zoom 1x, lens x0.4, and for live-cell observation at 37 °C, the correction collar was set to position 8160.
(§2) 5 x 10^4 CHO-MR or 1 x 10^5 WT, MR^−/− BMDC or BMDM were seeded in 8-well glass-bottomed microscopy slides (Ibidi, 80827) in complete medium. After equilibration in the microscope incubator, fluorescent glycan was added at 5 nM for CHO-MR and 10 nM for BMDC or BMDM experiments. Then, cells were brought into focus using brightfield illumination and 2000 frames (at 50 ms intervals) were recorded within a single field-of-view at 40–60% of maximum 647 nm laser power using TIRF illumination. For indicated experiments, Cytochalasin D (Focus Biomolecules) was added to a final concentration of 10 µM for 30 min prior to acquisition.
(§3) Processing of recordings using Glyco-PAINT-APP was performed as described in a step-by-step procedure in the Supplementary Software Manual in the Supplementary Information and accompanying Supplementary Videos 1 and 2. For the TrackMate processing, a batch file (Experiment Info.csv) containing the experiment metadata and tracking parameters was created. Threshold values were set to 5, 10 or 15 such that no more than 1.500.000 spots were detected. Recordings were then processed in TrackMate using the ‘Run TrackMate Batch’ plugin provided by the Glyco-PAINT-APP. Through this plugin, spot detection and tracking by TrackMate[70] was performed as indicated in the batch file using the Simple LAP tracker algorithm with a maximum frame gap of 3, a max linking distance of 0.6 μm and a gap closing max distance of 1.2 μm. Tracks with only two spots were discarded. For the parameter sensitivity analysis, each tracking or spot detection was varied as indicated, whilst the others were kept at aforementioned values (Basis scenario).
(§4) With the Glyco-PAINT-APP utility ‘Generate Squares’, a grid of squares was overlaid, and kinetic properties for each square were calculated. Default parameters for grid processing are (deviations are mentioned in figure captions): Nr of Squares in row 20, Minimum Tracks to Calculate Tau 20, Min allowable R Squared 0.1, Min Required Density Ratio 2, Maximum Allowable Variability 10 and Neighbour Mode Free.
(§5) For every recording, a background track count was calculated by averaging the track count of the 40 (10% of the total number of squares) least dense squares. Only squares for which the track count exceeded the Min Required Density Ratio of 2 were considered (and the remaining ignored as background). For each square, the variability was calculated and only squares for which the variability was less than the Maximum Allowable Variability of 10 were considered. For squares meeting both the Minimum Required Density Ratio and Maximum Allowable Variability criteria, and containing at least the Minimum Tracks to Calculate Tau kinetic parameters, including kon, koff and MSD were calculated as in Riera et al.[10], or copied from the TrackMate Tracks table output (for velocity, displacement, and track duration).

[1] = system: bone-marrow derived mouse dendritic cells (BMDCs); test: Glyco-PAINT-APP single-molecule glycan binding on live WT BMDC; details: for koff−1 / kon: Suppl. Fig 9, glycan SLP, median; for population of squares with binding events of high mobility (high diffusion coefficient) and low event density (kon), uniquely present for WT cells: WT BMDC versus MR-/- BMDC, Fig 4a, b; for event density, dwell time and diffusion coefficient after CytD treatment: Cytochalasin D treated versus untreated
Description: as §1, §2, §3, §4, §5

Ac-Lys(Man)-Gly-Lys(Man)-TEG-Asp-Glu-Val-Ser-Gly-Leu-Glu-Gln-Leu-Glu-Ser-Ile-Ile-Asn-Phe-Glu-Lys-Leu-Ala-Ala-Ala-Ala-Ala-Lys(sCy5)-NH2 ({Ac-K(Man)-Gly-K(Man)-TEG}-DEVSGLEQLESIINFEKLAAAAAK(sCy5)-NH2) [2 Mono(2), bivalent monomannosylated OVA SLP with sulfo-Cy5]
koff−1 (MR^−/− BMDC): 151 ms | kon (MR^−/− BMDC): 2 evts μm−2 sec−1 | koff−1 ([1]; BMDC + CytD): 81 ms | kon ([1]; BMDC + CytD): 3 evts μm−2 sec−1 | koff−1 ([1]; BMDC): 96 ms | kon ([1]; BMDC): 2.4 evts μm−2 sec−1 | population of squares with binding events of high mobility (high diffusion coefficient) and low event density (kon), uniquely present for WT cells [1]: most prominent

Ac-Lys(Man)-Lys(Man)-Lys(Man)-Lys(Man)-Lys(Man)-Lys(Man)-TEG-Asp-Glu-Val-Ser-Gly-Leu-Glu-Gln-Leu-Glu-Ser-Ile-Ile-Asn-Phe-Glu-Lys-Leu-Ala-Ala-Ala-Ala-Ala-Lys(sCy5)-NH2 ({Ac-K(Man)-K(Man)-K(Man)-K(Man)-K(Man)-K(Man)-TEG}-DEVSGLEQLESIINFEKLAAAAAK(sCy5)-NH2) [6 Mono(3), hexavalent monomannosylated OVA SLP with sulfo-Cy5]
koff−1 (MR^−/− BMDC): 180 ms | kon (MR^−/− BMDC): 6.3 evts μm−2 sec−1 | koff−1 ([1]; BMDC + CytD): 116 ms | kon ([1]; BMDC + CytD): 2 evts μm−2 sec−1 | koff−1 ([1]; BMDC): 76 ms | kon ([1]; BMDC): 2.1 evts μm−2 sec−1 | population of squares with binding events of high mobility (high diffusion coefficient) and low event density (kon), uniquely present for WT cells [1]: most prominent

Ac-Lys(Man)-TEG-Asp-Glu-Val-Ser-Gly-Leu-Glu-Gln-Leu-Glu-Ser-Ile-Ile-Asn-Phe-Glu-Lys-Leu-Ala-Ala-Ala-Ala-Ala-Lys(sCy5)-NH2 ({Ac-K(Man)-TEG}-DEVSGLEQLESIINFEKLAAAAAK(sCy5)-NH2) [1 Mono(1), monovalent monomannosylated OVA SLP with sulfo-Cy5]
koff−1 (MR^−/− BMDC): 182 ms | kon (MR^−/− BMDC): 6.2 evts μm−2 sec−1 | koff−1 ([1]; BMDC + CytD): 98 ms | kon ([1]; BMDC + CytD): 4.3 evts μm−2 sec−1 | koff−1 ([1]; BMDC): 87 ms | kon ([1]; BMDC): 0.9 evts μm−2 sec−1 | population of squares with binding events of high mobility (high diffusion coefficient) and low event density (kon), uniquely present for WT cells [1]: not

Ac-Lys(triMan)-Gly-Lys(triMan)-TEG-Asp-Glu-Val-Ser-Gly-Leu-Glu-Gln-Leu-Glu-Ser-Ile-Ile-Asn-Phe-Glu-Lys-Leu-Ala-Ala-Ala-Ala-Ala-Lys(sCy5)-NH2 (DEVSGLEQLESIINFEKLAAAAAK; two Lys(triMan), TEG, sulfo-Cy5, C-amide; printed: Asp-Glu-Val-Ser-Gly-Leu-Glu-Gln-Leu-Glu-Ser-Ile-Ile-Asn-Phe-Glu-Lys-Leu-Ala-Ala-Ala-Ala-Ala-Lys) [2 Tri(5), bivalent trimannosylated OVA SLP with sulfo-Cy5]
koff−1 (MR^−/− BMDC): 141 ms | kon (MR^−/− BMDC): 4.6 evts μm−2 sec−1 | event density, dwell time and diffusion coefficient after CytD treatment ([1]; BMDC): increased significantly | koff−1 ([1]; BMDC + CytD): 112 ms | kon ([1]; BMDC + CytD): 7 evts μm−2 sec−1 | koff−1 ([1]; BMDC): 69 ms | kon ([1]; BMDC): 1.1 evts μm−2 sec−1 | population of squares with binding events of high mobility (high diffusion coefficient) and low event density (kon), uniquely present for WT cells [1]: not

Ac-Lys(triMan)-Lys(triMan)-Lys(triMan)-Lys(triMan)-Lys(triMan)-Lys(triMan)-TEG-Asp-Glu-Val-Ser-Gly-Leu-Glu-Gln-Leu-Glu-Ser-Ile-Ile-Asn-Phe-Glu-Lys-Leu-Ala-Ala-Ala-Ala-Ala-Lys(sCy5)-NH2 (DEVSGLEQLESIINFEKLAAAAAK; six Lys(triMan), TEG, sulfo-Cy5, C-amide; printed: Asp-Glu-Val-Ser-Gly-Leu-Glu-Gln-Leu-Glu-Ser-Ile-Ile-Asn-Phe-Glu-Lys-Leu-Ala-Ala-Ala-Ala-Ala-Lys) [6 Tri(6), hexavalent trimannosylated OVA SLP with sulfo-Cy5]
koff−1 (MR^−/− BMDC): 115 ms | kon (MR^−/− BMDC): 1.1 evts μm−2 sec−1 | koff−1 ([1]; BMDC + CytD): 74 ms | kon ([1]; BMDC + CytD): 1.6 evts μm−2 sec−1 | koff−1 ([1]; BMDC): 68 ms | kon ([1]; BMDC): 2.3 evts μm−2 sec−1 | population of squares with binding events of high mobility (high diffusion coefficient) and low event density (kon), uniquely present for WT cells [1]: most prominent

Ac-Lys(triMan)-TEG-Asp-Glu-Val-Ser-Gly-Leu-Glu-Gln-Leu-Glu-Ser-Ile-Ile-Asn-Phe-Glu-Lys-Leu-Ala-Ala-Ala-Ala-Ala-Lys(sCy5)-NH2 (DEVSGLEQLESIINFEKLAAAAAK; Ac-Lys(triMan)-TEG, sulfo-Cy5, C-amide; printed: Asp-Glu-Val-Ser-Gly-Leu-Glu-Gln-Leu-Glu-Ser-Ile-Ile-Asn-Phe-Glu-Lys-Leu-Ala-Ala-Ala-Ala-Ala-Lys) [1 Tri(4), monovalent trimannosylated OVA SLP with sulfo-Cy5]
koff−1 (MR^−/− BMDC): 160 ms | kon (MR^−/− BMDC): 6 evts μm−2 sec−1 | event density, dwell time and diffusion coefficient after CytD treatment ([1]; BMDC): increased significantly | koff−1 ([1]; BMDC + CytD): 124 ms | kon ([1]; BMDC + CytD): 1.5 evts μm−2 sec−1 | koff−1 ([1]; BMDC): 88 ms | kon ([1]; BMDC): 1 evts μm−2 sec−1
